Results as given in PMC10412597, “Small molecule branched-chain ketoacid dehydrogenase kinase (BDK) inhibitors with opposing effects on BDK protein levels” (Nature Communications, 2023).
Where two headings read alike, the source gives them in different places.

Key:
Adenosine A2a Receptor = molecular target: T1, Adenosine A2a Receptor (Homo sapiens, UniProt P29274); design: Cerep Bioprint off-target panel, functional receptor agonism or antagonism; conditions: agonist
T1 construct: gene ADORA2A
Experimental: (§1) To discover a potent and selective BDK inhibitor, a subset of the Pfizer compound collection was screened. […] Off target activity was assessed in both CEREP and kinase panels (Supplementary Tables 2, 3).

[1] = molecular target: T2, Serotonin 5-HT1a Receptor (Homo sapiens, UniProt P08908); design: Cerep Bioprint off-target panel, functional receptor agonism or antagonism; conditions: agonist
T2 construct: gene HTR1A
Experimental: as §1

[2] = molecular target: T3, Adrenergic Alpha 1a Adrenoceptor (Homo sapiens, UniProt P35348); design: Cerep Bioprint off-target panel, functional receptor agonism or antagonism
T3 construct: gene ADRA1A
T3 sequence (P35348 1-466): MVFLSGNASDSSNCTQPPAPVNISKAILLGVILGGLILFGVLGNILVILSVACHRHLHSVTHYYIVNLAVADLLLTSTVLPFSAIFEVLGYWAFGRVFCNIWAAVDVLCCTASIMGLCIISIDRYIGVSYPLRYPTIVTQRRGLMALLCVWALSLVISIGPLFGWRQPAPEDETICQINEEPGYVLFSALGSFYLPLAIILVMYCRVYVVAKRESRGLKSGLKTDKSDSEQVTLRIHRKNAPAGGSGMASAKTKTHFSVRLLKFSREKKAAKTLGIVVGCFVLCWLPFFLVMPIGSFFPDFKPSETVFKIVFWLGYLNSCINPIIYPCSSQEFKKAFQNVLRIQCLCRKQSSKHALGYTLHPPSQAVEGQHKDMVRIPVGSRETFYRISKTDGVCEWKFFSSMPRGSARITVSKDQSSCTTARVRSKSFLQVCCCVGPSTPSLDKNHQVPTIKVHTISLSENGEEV
Experimental: as §1

Angiotensin 1 = molecular target: T4, Angiotensin 1 (Homo sapiens, UniProt P30556); design: Cerep Bioprint off-target panel, functional receptor agonism or antagonism
T4 construct: gene AGTR1
T4 sequence (P30556 1-359): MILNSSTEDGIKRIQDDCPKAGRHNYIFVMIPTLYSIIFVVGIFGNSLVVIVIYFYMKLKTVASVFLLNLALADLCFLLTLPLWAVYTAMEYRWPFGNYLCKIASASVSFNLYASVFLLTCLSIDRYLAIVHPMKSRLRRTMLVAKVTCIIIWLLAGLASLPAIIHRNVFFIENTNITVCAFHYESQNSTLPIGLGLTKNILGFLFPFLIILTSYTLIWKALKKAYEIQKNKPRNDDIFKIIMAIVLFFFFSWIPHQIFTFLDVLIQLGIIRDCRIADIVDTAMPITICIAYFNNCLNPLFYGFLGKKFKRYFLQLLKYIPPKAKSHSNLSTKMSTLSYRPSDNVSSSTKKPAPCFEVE
Experimental: as §1

[3] = molecular target: T5, Adrenergic Alpha 2a receptor (Homo sapiens, UniProt P08913); design: Cerep Bioprint off-target panel, functional receptor agonism or antagonism; conditions: agonist
T5 construct: gene ADRA2A
Experimental: as §1

Histamine H2 = molecular target: T6, Histamine H2 (Homo sapiens, UniProt P25021); design: Cerep Bioprint off-target panel, functional receptor agonism or antagonism; conditions: agonist
T6 construct: gene HRH2
Experimental: as §1

Mu Opiod = molecular target: T7, Mu Opiod (Homo sapiens, UniProt P35372); design: Cerep Bioprint off-target panel, functional receptor agonism or antagonism; conditions: antagonist
T7 construct: gene OPRM1
Experimental: as §1

Dopamine 2S = molecular target: T8, Dopamine 2S (Homo sapiens, UniProt P14416); design: Cerep Bioprint off-target panel, functional receptor agonism or antagonism
T8 construct: gene DRD2; short isoform (2S)
Experimental: as §1

Kappa Opioid = molecular target: T9, Kappa Opioid (Homo sapiens, UniProt P41145); design: Cerep Bioprint off-target panel, functional receptor agonism or antagonism; conditions: agonist
T9 construct: gene OPRK1
Experimental: as §1

Serotonin 5-HT4e = molecular target: T10, Serotonin 5-HT4e (Homo sapiens, UniProt Q13639); design: Cerep Bioprint off-target panel, functional receptor agonism or antagonism; conditions: agonist
T10 construct: gene HTR4; isoform 4e
Experimental: as §1

Dopamine D1 = molecular target: T11, Dopamine D1 (Homo sapiens, UniProt P21728); design: Cerep Bioprint off-target panel, functional receptor agonism or antagonism
T11 construct: gene DRD1
Experimental: as §1

Histamine H1 = molecular target: T12, Histamine H1 (Homo sapiens, UniProt P35367); design: Cerep Bioprint off-target panel, functional receptor agonism or antagonism
T12 construct: gene HRH1
Experimental: as §1

Muscarinic 3 = molecular target: T13, Muscarinic 3 (Homo sapiens, UniProt P20309); design: Cerep Bioprint off-target panel, functional receptor agonism or antagonism
T13 construct: gene CHRM3
Experimental: as §1

PPAR-gamma = molecular target: T14, PPAR-gamma (Homo sapiens, UniProt P37231); experiment: biochemical; design: Cerep Bioprint off-target panel, ligand binding inhibition
T14 construct: gene PPARG
T14 sequence (P37231 1-505): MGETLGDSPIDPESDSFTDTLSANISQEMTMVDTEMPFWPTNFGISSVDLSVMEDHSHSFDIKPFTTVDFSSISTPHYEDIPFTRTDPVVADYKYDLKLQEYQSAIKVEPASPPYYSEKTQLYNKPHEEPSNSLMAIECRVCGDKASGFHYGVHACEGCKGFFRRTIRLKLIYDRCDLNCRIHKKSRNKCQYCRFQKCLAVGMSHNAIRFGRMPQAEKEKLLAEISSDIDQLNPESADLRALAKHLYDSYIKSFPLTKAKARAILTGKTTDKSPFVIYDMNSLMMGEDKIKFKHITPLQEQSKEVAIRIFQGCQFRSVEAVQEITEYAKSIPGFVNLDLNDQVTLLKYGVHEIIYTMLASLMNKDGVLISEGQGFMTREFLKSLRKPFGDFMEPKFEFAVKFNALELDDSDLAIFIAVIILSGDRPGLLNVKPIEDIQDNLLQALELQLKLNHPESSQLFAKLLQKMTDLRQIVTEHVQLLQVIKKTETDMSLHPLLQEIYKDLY
Experimental: as §1

T13 sequence (P20309 whole entry): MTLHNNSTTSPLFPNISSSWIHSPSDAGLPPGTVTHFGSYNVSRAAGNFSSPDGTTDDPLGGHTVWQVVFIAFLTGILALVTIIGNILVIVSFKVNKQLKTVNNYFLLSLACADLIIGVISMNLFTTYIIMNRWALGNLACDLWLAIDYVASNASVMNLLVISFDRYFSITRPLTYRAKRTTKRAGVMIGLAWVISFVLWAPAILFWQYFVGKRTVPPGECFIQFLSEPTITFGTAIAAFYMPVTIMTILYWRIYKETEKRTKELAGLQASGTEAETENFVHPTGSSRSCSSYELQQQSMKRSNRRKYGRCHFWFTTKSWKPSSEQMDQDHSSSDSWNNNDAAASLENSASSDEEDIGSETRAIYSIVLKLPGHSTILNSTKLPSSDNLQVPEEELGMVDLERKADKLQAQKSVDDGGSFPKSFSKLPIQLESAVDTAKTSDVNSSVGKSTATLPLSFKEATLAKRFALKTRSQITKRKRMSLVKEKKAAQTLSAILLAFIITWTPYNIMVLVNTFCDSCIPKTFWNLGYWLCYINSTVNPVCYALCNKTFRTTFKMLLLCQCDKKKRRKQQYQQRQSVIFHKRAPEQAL
T11 sequence (P21728 whole entry): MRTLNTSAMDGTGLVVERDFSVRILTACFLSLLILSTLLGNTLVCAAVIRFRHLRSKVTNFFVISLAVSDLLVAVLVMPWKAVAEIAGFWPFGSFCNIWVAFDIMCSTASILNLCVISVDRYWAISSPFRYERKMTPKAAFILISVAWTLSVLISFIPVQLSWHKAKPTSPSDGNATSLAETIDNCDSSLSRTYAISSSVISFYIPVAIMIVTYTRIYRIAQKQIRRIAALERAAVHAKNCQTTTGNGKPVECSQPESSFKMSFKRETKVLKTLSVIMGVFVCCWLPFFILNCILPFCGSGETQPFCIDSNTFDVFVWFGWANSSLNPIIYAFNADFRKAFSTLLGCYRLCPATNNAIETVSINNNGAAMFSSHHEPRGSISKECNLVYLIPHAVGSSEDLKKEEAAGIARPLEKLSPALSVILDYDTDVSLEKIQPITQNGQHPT
T8 sequence (P14416 whole entry, canonical isoform): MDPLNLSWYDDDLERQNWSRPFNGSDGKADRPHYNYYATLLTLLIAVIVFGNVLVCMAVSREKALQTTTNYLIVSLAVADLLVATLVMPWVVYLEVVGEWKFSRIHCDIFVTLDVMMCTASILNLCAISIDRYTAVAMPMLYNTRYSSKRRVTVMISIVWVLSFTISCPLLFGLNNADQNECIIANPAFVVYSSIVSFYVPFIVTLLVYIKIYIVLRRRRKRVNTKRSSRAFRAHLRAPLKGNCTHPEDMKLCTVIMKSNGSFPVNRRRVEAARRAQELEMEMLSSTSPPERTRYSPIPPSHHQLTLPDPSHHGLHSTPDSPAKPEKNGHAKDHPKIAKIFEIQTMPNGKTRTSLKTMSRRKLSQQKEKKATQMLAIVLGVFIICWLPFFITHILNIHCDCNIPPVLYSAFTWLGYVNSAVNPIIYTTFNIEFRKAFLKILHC
T12 sequence (P35367 whole entry): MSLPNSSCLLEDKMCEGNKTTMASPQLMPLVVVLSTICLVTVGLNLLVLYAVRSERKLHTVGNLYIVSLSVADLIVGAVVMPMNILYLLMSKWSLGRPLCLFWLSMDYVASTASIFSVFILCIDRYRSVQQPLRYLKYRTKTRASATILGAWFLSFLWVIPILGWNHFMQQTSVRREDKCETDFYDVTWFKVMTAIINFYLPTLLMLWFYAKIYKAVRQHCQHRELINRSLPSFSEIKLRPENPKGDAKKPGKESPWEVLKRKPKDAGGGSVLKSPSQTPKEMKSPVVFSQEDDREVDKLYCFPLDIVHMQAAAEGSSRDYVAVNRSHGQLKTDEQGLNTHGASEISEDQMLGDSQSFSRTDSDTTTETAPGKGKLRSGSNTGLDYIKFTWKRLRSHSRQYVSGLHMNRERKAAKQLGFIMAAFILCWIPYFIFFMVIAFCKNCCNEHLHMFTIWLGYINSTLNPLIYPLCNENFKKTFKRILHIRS
T1 sequence (P29274 whole entry): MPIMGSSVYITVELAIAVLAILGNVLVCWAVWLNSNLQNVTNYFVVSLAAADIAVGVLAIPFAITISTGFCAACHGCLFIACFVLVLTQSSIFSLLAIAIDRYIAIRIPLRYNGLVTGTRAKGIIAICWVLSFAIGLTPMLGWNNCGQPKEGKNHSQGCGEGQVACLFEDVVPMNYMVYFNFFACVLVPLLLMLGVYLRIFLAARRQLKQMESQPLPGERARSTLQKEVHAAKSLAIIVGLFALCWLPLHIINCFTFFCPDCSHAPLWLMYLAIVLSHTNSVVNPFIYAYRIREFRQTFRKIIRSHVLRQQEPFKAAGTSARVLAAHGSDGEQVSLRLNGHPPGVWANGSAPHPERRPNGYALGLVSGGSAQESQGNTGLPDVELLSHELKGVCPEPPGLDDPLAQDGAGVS
T7 sequence (P35372 whole entry): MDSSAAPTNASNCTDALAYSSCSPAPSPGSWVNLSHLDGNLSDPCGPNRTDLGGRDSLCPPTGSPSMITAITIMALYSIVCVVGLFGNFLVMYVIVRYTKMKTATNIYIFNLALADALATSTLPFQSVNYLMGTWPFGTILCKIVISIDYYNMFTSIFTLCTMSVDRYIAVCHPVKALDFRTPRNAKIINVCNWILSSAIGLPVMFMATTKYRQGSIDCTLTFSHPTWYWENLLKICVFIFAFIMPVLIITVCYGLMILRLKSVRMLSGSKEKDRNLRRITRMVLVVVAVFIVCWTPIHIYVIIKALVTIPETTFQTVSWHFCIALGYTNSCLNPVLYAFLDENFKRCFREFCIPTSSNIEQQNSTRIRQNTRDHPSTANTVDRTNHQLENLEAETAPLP
T2 sequence (P08908 whole entry): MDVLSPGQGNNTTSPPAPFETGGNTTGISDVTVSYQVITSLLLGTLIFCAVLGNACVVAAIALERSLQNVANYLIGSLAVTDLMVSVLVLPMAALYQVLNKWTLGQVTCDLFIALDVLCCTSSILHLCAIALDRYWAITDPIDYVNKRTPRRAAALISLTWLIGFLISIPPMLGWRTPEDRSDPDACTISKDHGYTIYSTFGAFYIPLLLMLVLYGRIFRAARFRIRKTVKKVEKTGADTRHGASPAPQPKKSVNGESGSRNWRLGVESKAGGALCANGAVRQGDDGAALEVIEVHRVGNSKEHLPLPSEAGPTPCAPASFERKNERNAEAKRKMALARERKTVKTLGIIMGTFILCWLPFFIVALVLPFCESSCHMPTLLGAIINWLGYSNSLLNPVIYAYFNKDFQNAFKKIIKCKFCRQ
T9 sequence (P41145 whole entry): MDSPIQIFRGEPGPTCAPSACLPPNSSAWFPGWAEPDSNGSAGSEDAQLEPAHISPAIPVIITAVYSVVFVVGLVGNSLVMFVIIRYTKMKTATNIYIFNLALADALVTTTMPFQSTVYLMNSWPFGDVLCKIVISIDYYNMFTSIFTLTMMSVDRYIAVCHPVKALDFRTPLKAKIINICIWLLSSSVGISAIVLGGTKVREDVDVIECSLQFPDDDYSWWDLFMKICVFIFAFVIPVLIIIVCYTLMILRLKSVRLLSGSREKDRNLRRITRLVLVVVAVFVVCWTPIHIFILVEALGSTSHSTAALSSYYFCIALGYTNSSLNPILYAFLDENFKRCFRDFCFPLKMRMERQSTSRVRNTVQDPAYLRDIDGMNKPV
T5 sequence (P08913 whole entry): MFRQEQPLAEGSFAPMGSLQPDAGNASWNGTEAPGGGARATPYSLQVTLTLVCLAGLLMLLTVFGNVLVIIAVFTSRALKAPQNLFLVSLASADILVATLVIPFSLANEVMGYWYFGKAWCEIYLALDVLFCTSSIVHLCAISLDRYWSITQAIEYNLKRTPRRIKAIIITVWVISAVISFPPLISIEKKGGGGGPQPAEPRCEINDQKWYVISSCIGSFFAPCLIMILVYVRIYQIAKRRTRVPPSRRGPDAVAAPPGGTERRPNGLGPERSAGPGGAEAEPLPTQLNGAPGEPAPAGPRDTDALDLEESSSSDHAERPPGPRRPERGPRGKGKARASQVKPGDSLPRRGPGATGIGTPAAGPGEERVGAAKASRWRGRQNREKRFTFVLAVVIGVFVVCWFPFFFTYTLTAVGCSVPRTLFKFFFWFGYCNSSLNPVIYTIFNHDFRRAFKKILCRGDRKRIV
T10 sequence (Q13639 whole entry, canonical isoform): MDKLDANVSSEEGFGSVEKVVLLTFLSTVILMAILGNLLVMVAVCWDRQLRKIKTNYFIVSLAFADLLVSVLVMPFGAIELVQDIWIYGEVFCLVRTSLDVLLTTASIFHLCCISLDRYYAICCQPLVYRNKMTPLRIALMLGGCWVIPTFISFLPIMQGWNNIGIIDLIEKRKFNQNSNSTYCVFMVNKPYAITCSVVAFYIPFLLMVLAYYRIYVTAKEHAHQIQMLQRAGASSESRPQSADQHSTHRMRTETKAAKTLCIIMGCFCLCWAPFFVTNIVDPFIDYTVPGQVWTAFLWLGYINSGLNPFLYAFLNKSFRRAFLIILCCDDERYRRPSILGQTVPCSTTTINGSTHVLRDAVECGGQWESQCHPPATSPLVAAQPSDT
T6 sequence (P25021 whole entry): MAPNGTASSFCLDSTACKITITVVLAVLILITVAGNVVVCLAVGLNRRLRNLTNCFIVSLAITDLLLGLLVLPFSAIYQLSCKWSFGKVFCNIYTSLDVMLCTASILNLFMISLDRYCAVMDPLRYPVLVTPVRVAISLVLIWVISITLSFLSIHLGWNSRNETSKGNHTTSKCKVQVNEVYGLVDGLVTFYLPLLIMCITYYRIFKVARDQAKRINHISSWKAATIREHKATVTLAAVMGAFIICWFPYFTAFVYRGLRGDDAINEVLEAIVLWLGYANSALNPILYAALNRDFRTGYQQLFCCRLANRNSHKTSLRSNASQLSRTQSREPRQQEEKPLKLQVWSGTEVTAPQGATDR

O=C(O)c1sc2cc(F)sc2c1Cl [PF-07208254, 3-chloro-5-fluorothieno[3,2-b]thiophene-2-carboxylic acid]
% (agonism) PF-07208254 (Adenosine A2a Receptor; 100 µM): 0%
% (agonism) PF-07208254 ([1]; 100 µM): -1%
% (agonism) PF-07208254 ([2]; 100 µM, agonist): 8%
% Inhibition (antagonism) PF-07208254 ([2]; 100 µM, antagonist): 21%
% (agonism) PF-07208254 (Angiotensin 1; 100 µM, agonist): 3%
% Inhibition (antagonism) PF-07208254 (Angiotensin 1; 100 µM, antagonist): 18%
% (agonism) PF-07208254 ([3]; 100 µM): -1%
% (agonism) PF-07208254 (Histamine H2; 100 µM): 0%
% Inhibition (antagonism) PF-07208254 (Mu Opiod; 100 µM): 2%
% (agonism) PF-07208254 (Dopamine 2S; 100 µM, agonist): -29%
% Inhibition (antagonism) PF-07208254 (Dopamine 2S; 100 µM, antagonist): -7%
% (agonism) PF-07208254 (Kappa Opioid; 100 µM): -3%
% (agonism) PF-07208254 (Serotonin 5-HT4e; 100 µM): 6%
% (agonism) PF-07208254 (Dopamine D1; 100 µM, agonist): -4%
% Inhibition (antagonism) PF-07208254 (Dopamine D1; 100 µM, antagonist): -5%
% (agonism) PF-07208254 (Histamine H1; 100 µM, agonist): -1%
% Inhibition (antagonism) PF-07208254 (Histamine H1; 100 µM, antagonist): 17%
% (agonism) PF-07208254 (Muscarinic 3; 100 µM, agonist): 0%
% Inhibition (antagonism) PF-07208254 (Muscarinic 3; 100 µM, antagonist): 18%
IC50 (PPAR-gamma): 86 µM

CCC1(COc2ccc(-c3csc(-c4ccccc4C(=O)O)n3)cn2)CC1 [PF-07247685, 2-(4-{6-[(1-ethylcyclopropyl)methoxy]pyridin-3-yl}-1,3-thiazol-2-yl)benzoic acid]
% (agonism) PF-07247685 (Adenosine A2a Receptor; 10 µM): 1%
% (agonism) PF-07247685 ([1]; 10 µM): -1%
% (agonism) PF-07247685 ([2]; 10 µM, agonist): 1%
% Inhibition (antagonism) PF-07247685 ([2]; 10 µM, antagonist): 14%
% (agonism) PF-07247685 (Angiotensin 1; 10 µM, agonist): -8%
% Inhibition (antagonism) PF-07247685 (Angiotensin 1; 10 µM, antagonist): 5%
% (agonism) PF-07247685 ([3]; 10 µM): 0%
% (agonism) PF-07247685 (Histamine H2; 10 µM): 1%
% Inhibition (antagonism) PF-07247685 (Mu Opiod; 10 µM): -3%
% (agonism) PF-07247685 (Dopamine 2S; 10 µM, agonist): -17%
% Inhibition (antagonism) PF-07247685 (Dopamine 2S; 10 µM, antagonist): -7%
% (agonism) PF-07247685 (Kappa Opioid; 10 µM): -7%
% (agonism) PF-07247685 (Serotonin 5-HT4e; 10 µM): 0%
% (agonism) PF-07247685 (Dopamine D1; 10 µM, agonist): 4%
% Inhibition (antagonism) PF-07247685 (Dopamine D1; 10 µM, antagonist): 5%
% (agonism) PF-07247685 (Histamine H1; 10 µM, agonist): -5%
% Inhibition (antagonism) PF-07247685 (Histamine H1; 10 µM, antagonist): -2%
% (agonism) PF-07247685 (Muscarinic 3; 10 µM, agonist): -1%
% Inhibition (antagonism) PF-07247685 (Muscarinic 3; 10 µM, antagonist): 3%
IC50 (PPAR-gamma; read-out: IC50 binding PF-07247685): 50 µM
